Data from patent US20230203060A1 (GENFLEET THERAPEUTICS (SHANGHAI) INC., priority 2020, published 2023).

Key:
[1] = tested on: KRAS G12C mutant MIA PaCa-2 cells; assay: Cell proliferation inhibition experiment, 3D spheroid, CellTiter-Glo, MIA PaCa-2; type: cell-based, human; conditions: Homo sapiens, MIA PaCa-2, 120 h, 3D cell model in 384-well spheroid plate, 5 days, CellTiter-Glo; read-out: MIA-PaCa2 IC50
How it was run: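 Luminescent ATP read-out (CellTiter-Glo) after 5-day compound treatment of spheroids formed overnight from 200 MIA PaCa-2 cells/well; compounds in 3.16-fold series, 0.1% DMSO final. IC50 derived by four-parameter fit of percent inhibition, normalized to DMSO control and medium blank.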

[2] = tested on: KRAS G12C mutant NCI-H358 cells; assay: Cell proliferation inhibition experiment, 3D spheroid, CellTiter-Glo, NCI-H358; type: cell-based, human; conditions: Homo sapiens, NCI-H358, 120 h, NCI-H358 (KRAS G12C mutant) 3D spheroid, 5 days with compound, CellTiter-Glo; read-out: H358 IC50
How it was run: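 IC50 values come from four-parameter fits of proliferation inhibition, measured by CellTiter-Glo after 5-day compound exposure. Spheroids of H358 (800 cells) or A549 (400 cells) were formed overnight in 2% FBS medium; DMSO held at 0.1%, doses spaced 3.16-fold.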

IC50 [1] [nM]	IC50 [2] [nM]	SMILES
2.4	1.1	C=CC(=O)N1CCN2C(=O)c3c(N4CCC(OC)C4(C)C)nc(-c4c(O)cccc4F)c(Cl)c3OC[C@H]2C1 (stereo partly drawn) [Z241a, (6aR)-8-acryloyl-4-chloro-3-(2-fluoro-6-hydroxyphenyl)-1-(3-methoxy-2,2-dimethylpyrrolidin-1-yl)-6,6a,7,8,9,10-hexahydro-12H-pyrazino[2,1-c]pyrido[3,4-f][1,4]oxazepin-12-one]
9	4	C=CC(=O)N1CCN2C(=O)c3c(N4CCN(CCOC)C[C@@H]4C)nc(-c4c(O)cccc4F)c(Cl)c3OC[C@H]2C1 [Z257a, (6aR)-8-acryloyl-4-chloro-3-(2-fluoro-6-hydroxyphenyl)-1-((S)-4-(2-methoxyethyl)-2-methylpiperazin-1-yl)-6,6a,7,8,9,10-hexahydro-12H-pyrazino[2,1-c]pyrido[3,4-f][1,4]oxazepin-12-one]
4.9	2.6	C=CC(=O)N1CCN2C(=O)c3c(N4CCC(O)C4(C)C)nc(-c4c(O)cccc4F)c(Cl)c3OC[C@H]2C1 (stereo partly drawn) [Z241, (6aR)-8-acryloyl-1-(3-hydroxy-2,2-dimethylpyrrolidin-1-yl)-4-chloro-3-(2-fluoro-6-hydroxyphenyl)-6,6a,7,8,9,10-hexahydro-12H-pyrazino[2,1-c]pyrido[3,4-f][1,4]oxazepin-12-one]
16	9.5	C=CC(=O)N1CCN2C(=O)c3c(N4CCN(C)C[C@@H]4C)nc(-c4c(F)ccc(Cl)c4O)c(Cl)c3OC[C@H]2C1 [Z342, (6aR)-8-acryloyl-4-chloro-3-(3-chloro-6-fluoro-2-hydroxyphenyl)-1-((S)-2,4-dimethylpiperazin-1-yl)-6,6a,7,8,9,10-hexahydro-12H-pyrazino[2,1-c]pyrido[3,4-f][1,4]oxazepin-12-one]

Continued, compound first:

SMILES	IC50 [1] [nM]	IC50 [2] [nM]
C=CC(=O)N1CCN2C(=O)c3c(N4CC(C)(C)OC[C@@H]4C)nc(-c4c(O)cccc4F)c(Cl)c3OC[C@H]2C1 [Z276-1, (6aR)-8-acryloyl-4-chloro-3-(2-fluoro-6-hydroxyphenyl)-1-((S)-2,2,5-trimethylmorpholino)-6,6a,7,8,9,10-hexahydro-12H-pyrazino[2,1-c]pyrido[3,4-f][1,4]oxazepin-12-one]	14.9	7.6
C=CC(=O)N1CCN2C(=O)c3c(N4CC[C@@H](OC)[C@@H]4C)nc(-c4c(O)cccc4F)c(Cl)c3OC[C@H]2C1 [Z338-1, (6aR)-8-acryloyl-4-chloro-3-(2-fluoro-6-hydroxyphenyl)-1-((2S,3R)-3-methoxy-2-methylpyrrolidin-1-yl)-6,6a,7,8,9,10-hexahydro-12H-pyrazino[2,1-c]pyrido[3,4-f][1,4]oxazepin-12-one]	9	6
C=CC(=O)N1CCN2C(=O)c3c(N4C[C@@H](N(C)C)CC4(C)C)nc(-c4c(O)cccc4F)c(Cl)c3OC[C@H]2C1 (single isomer, unassigned) [Z324-1]	2.4	1.3
C=CC(=O)N1CCN2C(=O)c3c(N4CCN(C5COC5)C[C@@H]4C)nc(-c4c(O)cccc4F)c(Cl)c3OC[C@H]2C1 (single isomer, unassigned) [Z239-1]	20	15
C=CC(=O)N1CCN2C(=O)c3c(N4Cc5nn(C)cc5[C@@H]4C)nc(-c4c(O)cccc4F)c(Cl)c3OC[C@H]2C1 (single isomer, unassigned) [Z345-2]	17	11.8
C=CC(=O)N1CCN2C(=O)c3c(N4C[C@@H](N(C)CCOC)C[C@@H]4C)nc(-c4c(O)cccc4F)c(Cl)c3OC[C@H]2C1 [Z358-1]	7.2	4.8
